Earlier results, collected in patent US7098224B2, “Hydroxylansoprazole methods” (Sepracor Inc., priority 1998, dated 2006).

Test system: isolated parietal cells
Conditions: Inatomi et al., Yakuri to Chiryo 19, 477–486 (1991)

Row | IC50 (read-out: inhibited acid formation in isolated parietal cells, IC50) [nM] | Structure (SMILES) | inhibition of acid formation in isolated parietal cells (result in words)
1 |  | Cc1c(OCC(F)(F)F)ccnc1C[S+]([O-])c1nc2cc(O)ccc2[nH]1 (racemic) [racemic hydroxylansoprazole, 2[[[3-methyl-4-(2,2,2-trifluoroethoxy)-2-pyridinyl]methyl]sulfinyl]-1 H-benzimidazol-5-ol] | did not inhibit acid formation
2 | 90 | Cc1c(OCC(F)(F)F)ccnc1C[S+]([O-])c1nc2ccccc2[nH]1 (racemic) [lansoprazole, Lansoprazole] | 
